test system: mouse astrogial cells; experiment: not given; details: Bishop et al., Nutrition Reviews 56:287-293 (1998); cited from earlier work

| Compound | nerve growth factor synthesis |
| --- | --- |
| O=C(O)c1cc(C(=O)O)c2c(n1)C(=O)C(=O)c1cc(C(=O)O)[nH]c1-2 [PQQ, 2,7,9-tricarboxy-1H-pyrrolo[2,3-f]quino-line-4,5-dione] | increases |

test system: strains NRRL B-30035, NRRL B-30037N, and NRRL B-30036; experiment: Antibiotic resistance by minimum inhibitory concentration (MIC), commercial "Pasco" system; assay type: cell-based; details: strains NRRL B-30035 (ADM 291-19), NRRL B-30037N (ADM 62A-12A), NRRL B-30036 (ADM 266-13B), based on physiologically attainable concentrations of antibiotic
Excerpt: (6) Antibiotic resistance—sensitive to amikacin, augmentin (amoxicillin plus clavulonic acid), ampicillin, cefazolin, cefoxitin, ceftazidime, ceftiofur, cephalothin, enrofloxacin, florfenicol, gentamicin, imipenem, kanamycin, sarafloxicin, tetracycline, ticarcillin, and tilmicosin, but resistant to tribrissen ([…] plus sulfamethozole), as determined by minimum inhibitory concentration (MIC), based on physiologically attainable concentrations of antibiotic, employing the commercial “Pasco” system; and […]

| Compound | Antibiotic resistance (sensitive / resistant) as determined by minimum inhibitory concentration (MIC) |
| --- | --- |
| gentamicin | sensitive |
| CC(=O)OCC1=C(C(=O)O)N2C(=O)[C@@H](NC(=O)Cc3cccs3)[C@H]2SC1 [cephalothin] | sensitive |
| CO[C@@]1(NC(=O)Cc2cccs2)C(=O)N2C(C(=O)O)=C(COC(N)=O)CS[C@@H]21 [cefoxitin] | sensitive |
| CC1(C)S[C@@H]2[C@H](NC(=O)[C@H](N)c3ccccc3)C(=O)N2[C@H]1C(=O)O [ampicillin] | sensitive |
| NCC[C@H](O)C(=O)N[C@@H]1C[C@H](N)[C@@H](O[C@H]2O[C@H](CN)[C@@H](O)[C@H](O)[C@H]2O)[C@H](O)[C@H]1O[C@H]1O[C@H](CO)[C@@H](O)[C@H](N)[C@H]1O [amikacin] | sensitive |
| CC1(C)S[C@@H]2[C@H](NC(=O)[C@H](C(=O)O)c3ccsc3)C(=O)N2[C@H]1C(=O)O [ticarcillin] | sensitive |
| CC[C@H]1OC(=O)C[C@@H](O)[C@H](C)[C@@H](O[C@@H]2O[C@H](C)[C@@H](O)[C@H](N(C)C)[C@H]2O)[C@@H](CCN2C[C@H](C)C[C@H](C)C2)C[C@@H](C)C(=O)/C=C/C(C)=C/[C@@H]1CO[C@@H]1O[C@H](C)[C@@H](O)[C@@H](OC)[C@H]1OC [tilmicosin] | sensitive |
| CC(C)(O/N=C(\C(=O)N[C@@H]1C(=O)N2C(C(=O)[O-])=C(C[n+]3ccccc3)CS[C@H]12)c1csc(N)n1)C(=O)O [ceftazidime] | sensitive |
| Cc1nnc(SCC2=C(C(=O)O)N3C(=O)[C@@H](NC(=O)Cn4cnnn4)[C@H]3SC2)s1 [cefazolin] | sensitive |
| O=C(O)c1cn(-c2ccc(F)cc2)c2cc(N3CCNCC3)c(F)cc2c1=O [sarafloxicin] | sensitive |
| CCN1CCN(c2cc3c(cc2F)c(=O)c(C(=O)O)cn3C2CC2)CC1 [enrofloxacin] | sensitive |
| CS(=O)(=O)c1ccc([C@@H](O)[C@@H](CF)NC(=O)C(Cl)Cl)cc1 [florfenicol] | sensitive |
| CO/N=C(\C(=O)N[C@@H]1C(=O)N2C(C(=O)O)=C(CSC(=O)c3ccco3)CS[C@H]12)c1csc(N)n1 [ceftiofur] | sensitive |
